Test results from ChEMBL document CHEMBL1128630, “Alkoxy substituted benzisothiazolone (BIT) derivatives: potent inhibitors of human leukocyte elastase” (Bioorg Med Chem Lett, 1995).

Assay: Half life measured in vitro for its stability in human blood
Type: ADME, tissue-based

Row | SMILES | half-life [min]
1 | CCOc1cc(OCC)c2c(c1)S(=O)(=O)N(COC(=O)c1c(Cl)cccc1Cl)C2=O | 98
2 | COc1cc(OC)c2c(c1)S(=O)(=O)N(COC(=O)c1c(Cl)cccc1Cl)C2=O | 30
3 | COc1ccc2c(c1)S(=O)(=O)N(COC(=O)c1c(Cl)cccc1Cl)C2=O | 5
4 | CCOc1cccc2c1C(=O)N(COC(=O)c1c(Cl)cccc1Cl)S2(=O)=O | 10
